Measured values as given in publication PMC10533412, “Phosphoantigens glue butyrophilin 3A1 and 2A1 to activate Vγ9Vδ2 T cells” (Nature, 2023).
Several values for one entry are separate records, joined by “and”; a condition that tells them apart may be missing. Identical values can stand only once. Like-named read-outs stand apart in the source and are kept apart here.

Key:
[1] = test system: BTN2A−/− MIA PaCa-2 (BTN2A1/BTN2A2 KO) cells; assay: Cell killing assay with BTN2A−/− MIA PaCa-2 (BTN2A1/BTN2A2 KO) cells expressing BTN2A1/BTN2A2 variants; settings: replicates and mean
Experimental: (§4) MIA PaCa-2 cells were infected with lentivirus bearing luciferase transgene. Luciferase-positive cells were plated at 5.0 × 10^3 cells per well in 384-well plates 1 day before transfection. All plasmids were transfected into BTN2A^−/− MIA PaCa-2 (BTN2A1/BTN2A2 KO) cells using Lipofectamine 2000 reagent. […] Stable-lite luciferase (Vazyme) was added to each well and the luciferase signal was immediately measured by using the PerkinElmer EnVision microplate reader.
(§5) Percentage of lysis was calculated using the following equation: percentage of specific lysis = (maximum luciferase − experimental luciferase)/maximum luciferase × 100.

Vγ9Vδ2 T cells = settings: cited from earlier work
BTN3A1 B30.2 domain = target: T1, BTN3A1 B30.2 domain (Homo sapiens, UniProt O00481); assay: ITC: pAg binding to the BTN3A1 B30.2 domain; settings: 25 °C, read-out: KD, pAg binding to BTN3A1 B30.2 alone
T1 construct: The BTN3A1 B30.2 domain was expressed and purified as described previously; made in house
Experimental: (§1) ITC binding fits were calculated using MicroCal Analysis software.
For pAg binding to the BTN3A1 B30.2 domain, the sample cell and injection syringe were filled with the buffer containing 100 µM protein and 1 mM HMBPP, respectively, or 400 µM protein and 4 mM DMAPP (IPP), respectively.

[2] = target: T2, preconditioned BTN2A1–BTN3A1 B30.2 complex (Homo sapiens, UniProt O00481+Q7KYR7); assay: ITC: pAg binding to the preconditioned BTN2A1 B30.2 and BTN3A1 B30.2 complex
T2 construct: The BTN3A1 B30.2 domain was expressed and purified as described previously; 6xHis; made in house; host or cells: Escherichia coli BL21 (DE3) for BTN2A1 B30.2
Experimental: as §1
For HMBPP binding to the preconditioned BTN2A1 B30.2 and BTN3A1 B30.2 complex, BTN2A1 B30.2 (20 µM) and BTN3A1 B30.2 (10 µM) were incubated in the buffer at a 2:1 ratio and loaded into the sample cell, and the injection syringe was filled with buffer containing 100 µM HMBPP.
For DMAPP/IPP binding to the preconditioned BTN2A1 B30.2 and BTN3A1 B30.2 complex, BTN2A1 B30.2 (200 µM) and BTN3A1 B30.2 (100 µM) were incubated in buffer at a 2:1 ratio and loaded into the sample cell, and the injection syringe was filled with buffer containing 1 mM DMAPP/IPP.
For other pAgs, their concentrations were adjusted to 500 µM, and BTN2A1 B30.2 and BTN3A1 B30.2 were adjusted to 100 µM and 50 µM at a 2:1 ratio.

VpBTN1 BFI–VpBTN3 BFI = assay: ITC: VpBTN1 BFI binding to VpBTN3 BFI in the presence of pAg; set-up: species or system alpaca (Vicugna pacos)
Experimental: (§2) ITC experiments were performed using the MicroCal PEAQ-ITC instrument (GE Healthcare) at 25 °C. We used an initial injection of 0.4 μl followed by 19 injections (2 µl each) at 150 s time intervals. ITC binding fits were calculated using MicroCal Analysis software. The samples were prepared using a buffer (20 mM HEPES pH 7.5, 150 mM NaCl).
(§3) ITC experiments of HMBPP, DMAPP or IPP binding to the VpBTN3 BFI (or the preconditioned VpBTN3 BFI and VpBTN2 BFI complex) and VpBTN2 BFI (or VpBTN1 BFI) binding to VpBTN3 BFI in the presence of HMBPP, DMAPP or IPP were performed according to the same procedures as for the BTN3A1 B30.2 and BTN2A1 B30.2.

VpBTN3 BFI = VpBTN3 BFI (Vicugna pacos, UniProt A0A345DF50); assay: ITC: pAg binding to VpBTN3 BFI; set-up: species or system alpaca (Vicugna pacos)
Experimental: as §2, §3

MIA PaCa-2 cells = assay: Cell killing assay: cytotoxicity of Vγ9Vδ2 T cells towards pAg- or zoledronate-treated MIA PaCa-2 cells (luciferase); format: cell-based, human; settings: Homo sapiens, MIA PaCa-2, read-out: EC50 (M) for MIA PaCa-2 cell lysis mediated by HMBPP analogs and Vγ9Vδ2 T cells
Experimental: as §4, §5

T2 sequence (O00481 322-513 limits assumed): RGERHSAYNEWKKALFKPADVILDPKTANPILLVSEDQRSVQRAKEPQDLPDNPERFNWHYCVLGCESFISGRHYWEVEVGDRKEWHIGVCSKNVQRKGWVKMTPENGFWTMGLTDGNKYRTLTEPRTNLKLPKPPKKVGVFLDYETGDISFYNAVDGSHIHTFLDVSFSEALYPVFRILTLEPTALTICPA
T2 sequence (Q7KYR7 316-527 limits assumed): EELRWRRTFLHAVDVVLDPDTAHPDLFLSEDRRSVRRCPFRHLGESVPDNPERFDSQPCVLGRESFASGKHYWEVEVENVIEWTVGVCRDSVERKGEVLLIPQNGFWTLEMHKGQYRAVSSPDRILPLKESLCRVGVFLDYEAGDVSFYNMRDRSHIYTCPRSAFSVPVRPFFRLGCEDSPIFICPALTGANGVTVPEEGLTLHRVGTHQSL
T1 sequence (O00481 322-513 limits assumed): as the sequence (O00481 322-513 limits assumed) above
Sequence of VpBTN3 BFI (A0A345DF50 entry or part of it): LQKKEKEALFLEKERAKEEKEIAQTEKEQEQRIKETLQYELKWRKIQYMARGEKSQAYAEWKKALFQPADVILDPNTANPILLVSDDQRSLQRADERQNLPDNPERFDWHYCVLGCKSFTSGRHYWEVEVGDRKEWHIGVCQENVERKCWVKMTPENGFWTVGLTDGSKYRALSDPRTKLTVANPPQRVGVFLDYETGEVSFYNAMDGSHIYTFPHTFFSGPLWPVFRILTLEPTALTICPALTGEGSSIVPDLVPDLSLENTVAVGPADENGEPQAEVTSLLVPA

## CC(C)=CCOP(=O)(O)OP(=O)(O)O [Compound 2, 3-methylbut-2-en-1-yl diphosphate]
[1]; DMAPP log concentration -3, 2A1 WT cells
  Cytotoxicity of Vγ9Vδ2 T cells (percentage of specific lysis): 67.6357% and 66.8005% and 66.45% and 64.9272%
[1]; DMAPP log concentration -3, 2A1 ∆C cells
  Cytotoxicity of Vγ9Vδ2 T cells (percentage of specific lysis): 50.07% and 46.3428% and 49.8006% and 54.0592%
[1]; DMAPP log concentration -4, 2A1 WT cells
  Cytotoxicity of Vγ9Vδ2 T cells (percentage of specific lysis): 51.6139% and 52.9591% and 50.43% and 46.7133%
[1]; DMAPP log concentration -4, 2A1 ∆C cells
  Cytotoxicity of Vγ9Vδ2 T cells (percentage of specific lysis): 32.85% and 28.2229% and 33.1127% and 37.2268%
[1]; DMAPP log concentration -5, 2A1 WT cells
  Cytotoxicity of Vγ9Vδ2 T cells (percentage of specific lysis): 27.5187% and 30.1465% and 24.7% and 16.4296%
[1]; DMAPP log concentration -5, 2A1 ∆C cells
  Cytotoxicity of Vγ9Vδ2 T cells (percentage of specific lysis): 7.57% and 3.153% and 7.027% and 12.531%
[1]; DMAPP log concentration -6, 2A1 WT cells
  Cytotoxicity of Vγ9Vδ2 T cells (percentage of specific lysis): 16.7353% and 16.8396% and 11.83% and 1.904%
[1]; DMAPP log concentration -6, 2A1 ∆C cells
  Cytotoxicity of Vγ9Vδ2 T cells (percentage of specific lysis): -5.456% and -7.052% and -6.983% and -2.333%
[1]; DMAPP log concentration -7, 2A1 WT cells
  Cytotoxicity of Vγ9Vδ2 T cells (percentage of specific lysis): 14.3939% and 14.8552% and 15.57% and 17.4711%
[1]; DMAPP log concentration -7, 2A1 ∆C cells
  Cytotoxicity of Vγ9Vδ2 T cells (percentage of specific lysis): -6.482% and -4.367% and -8.1249% and -6.954%
[1]; DMAPP log concentration -8, 2A1 WT cells
  Cytotoxicity of Vγ9Vδ2 T cells (percentage of specific lysis): 15.6376% and 16.0032% and 16.43% and 17.6429%
[1]; DMAPP log concentration -8, 2A1 ∆C cells
  Cytotoxicity of Vγ9Vδ2 T cells (percentage of specific lysis): -6.047% and -3.94% and -7.782% and -6.418%
[1]; DMAPP log concentration -9, 2A1 WT cells
  Cytotoxicity of Vγ9Vδ2 T cells (percentage of specific lysis): 15.8717% and 18.2997% and 15.33% and 11.8213%
[1]; DMAPP log concentration -9, 2A1 ∆C cells
  Cytotoxicity of Vγ9Vδ2 T cells (percentage of specific lysis): -5.239% and -4.736% and -6.266% and -4.716%
[1]; DMAPP log concentration -10, 2A1 WT cells
  Cytotoxicity of Vγ9Vδ2 T cells (percentage of specific lysis): 19.1442% and 5.933% and 13.82% and 16.3962%
[1]; DMAPP log concentration -10, 2A1 ∆C cells
  Cytotoxicity of Vγ9Vδ2 T cells (percentage of specific lysis): -5.48% and -6.082% and -3.811% and -6.548%
Vγ9Vδ2 T cells
  Vγ9Vδ2 T cell activation: weakly activate
BTN3A1 B30.2 domain
  Kd: 120 µM
[2]; ITC, read-out: KD, pAg binding to the preconditioned BTN2A1–BTN3A1 B30.2 complex
  Kd: 34.5 µM
VpBTN1 BFI–VpBTN3 BFI
  VpBTN1 binding to VpBTN3 in the presence of pAg: does not bind
VpBTN3 BFI
  Kd: 92.7 µM
MIA PaCa-2 cells
  EC50: 3.38e-05 M

## C=C(C)CCO[P@@](=O)(O)OP(=O)(O)O [Compound 3, 3-methylbut-3-en-1-yl diphosphate]
[1]; IPP log concentration -3, 2A1 WT cells, listed as IPP
  Cytotoxicity of Vγ9Vδ2 T cells (percentage of specific lysis): 80.272% and 79.8722% and 80.6% and 81.6589%
[1]; IPP log concentration -3, 2A1 ∆C cells, listed as IPP
  Cytotoxicity of Vγ9Vδ2 T cells (percentage of specific lysis): 66.24% and 65.5729% and 68.622% and 64.5211%
[1]; IPP log concentration -4, 2A1 WT cells, listed as IPP
  Cytotoxicity of Vγ9Vδ2 T cells (percentage of specific lysis): 65.5992% and 65.1182% and 63.37% and 59.3975%
[1]; IPP log concentration -4, 2A1 ∆C cells, listed as IPP
  Cytotoxicity of Vγ9Vδ2 T cells (percentage of specific lysis): 41.6% and 36.6007% and 47.2763% and 40.914%
[1]; IPP log concentration -5, 2A1 WT cells, listed as IPP
  Cytotoxicity of Vγ9Vδ2 T cells (percentage of specific lysis): 35.2807% and 27.2598% and 28.66% and 23.4468%
[1]; IPP log concentration -5, 2A1 ∆C cells, listed as IPP
  Cytotoxicity of Vγ9Vδ2 T cells (percentage of specific lysis): 1.679% and 1.84% and 2.699% and 0.4994%
[1]; IPP log concentration -6, 2A1 WT cells, listed as IPP
  Cytotoxicity of Vγ9Vδ2 T cells (percentage of specific lysis): 15.0716% and 6.17% and 6.634% and -1.341%
[1]; IPP log concentration -6, 2A1 ∆C cells, listed as IPP
  Cytotoxicity of Vγ9Vδ2 T cells (percentage of specific lysis): -15.39% and -15.1198% and -17.7309% and -13.3339%
[1]; IPP log concentration -7, 2A1 WT cells, listed as IPP
  Cytotoxicity of Vγ9Vδ2 T cells (percentage of specific lysis): 11.2422% and 4.023% and 5.64% and 1.654%
[1]; IPP log concentration -7, 2A1 ∆C cells, listed as IPP
  Cytotoxicity of Vγ9Vδ2 T cells (percentage of specific lysis): -18.31% and -18.7728% and -18.1549% and -17.992%
[1]; IPP log concentration -8, 2A1 WT cells, listed as IPP
  Cytotoxicity of Vγ9Vδ2 T cells (percentage of specific lysis): 11.2149% and 6.571% and 5.735% and -0.5797%
[1]; IPP log concentration -8, 2A1 ∆C cells, listed as IPP
  Cytotoxicity of Vγ9Vδ2 T cells (percentage of specific lysis): -16.71% and -15.5368% and -14.5401% and -20.0505%
[1]; IPP log concentration -9, 2A1 WT cells, listed as IPP
  Cytotoxicity of Vγ9Vδ2 T cells (percentage of specific lysis): 7.561% and 7.582% and 2.411% and -7.912%
[1]; IPP log concentration -9, 2A1 ∆C cells, listed as IPP
  Cytotoxicity of Vγ9Vδ2 T cells (percentage of specific lysis): -17.93% and -16.44% and -18.8245% and -18.5163%
[1]; IPP log concentration -10, 2A1 WT cells, listed as IPP
  Cytotoxicity of Vγ9Vδ2 T cells (percentage of specific lysis): 9.041% and 9.773% and 3.545% and -8.179%
[1]; IPP log concentration -10, 2A1 ∆C cells, listed as IPP
  Cytotoxicity of Vγ9Vδ2 T cells (percentage of specific lysis): -16.6% and -16.8802% and -17.0673% and -15.8455%
Vγ9Vδ2 T cells
  Vγ9Vδ2 T cell activation: weakly activate
BTN3A1 B30.2 domain
  Kd: 658 µM
[2]
  Kd: 625 µM
VpBTN1 BFI–VpBTN3 BFI
  VpBTN1 binding to VpBTN3 in the presence of pAg: does not bind
VpBTN3 BFI
  Kd: 96.1 µM
MIA PaCa-2 cells
  EC50: 0.00493 M

## Cc1ccc(C/C(=C\COP(=O)(O)OP(=O)(O)O)CO)cc1 [HMBPP-08, (E)-4-hydroxy-3-(4-methylbenzyl)but-2-enyl diphosphate]
Vγ9Vδ2 T cells
  γδ T cell activation: do not efficiently activate
